In ChEMBL document CHEMBL4765432, “Design and synthesis of novel Flavone-based histone deacetylase inhibitors antagonizing activation of STAT3 in breast cancer” (Eur J Med Chem, 2020):

Columns and labels:
MDA-MB-231 [1] = experiment: Induction of apoptosis in human MDA-MB-231 cells assessed as late apoptotic cells at 1 uM incubated for 72 hrs by annexinV-FITC and PI staining based flow cytometry analysis (reference value: 3.79 %); assay type: functional
[2] = molecular target: Signal transducer and activator of transcription 3 (Homo sapiens) (UniProt P40763); experiment: Inhibition of STAT3 in human MDA-MB-231 cells assessed as reduction in STAT-3 phosphorylation incubated for 8 hrs by Western blot analysis; assay type: cell-based; settings: dose 2.5-20 µM
MDA-MB-231 [3] = experiment: Induction of cell cycle arrest in human MDA-MB-231 cells assessed as S phase accumulation at 1 uM incubated for 24 hrs by PI staining based flow cytometry analysis (reference value: 43.82 %); assay type: functional
4T1 [4] = experiment: Induction of cell cycle arrest in mouse 4T1 cells assessed as increase in G0/G1 phase accumulation incubated for 24 hrs by flow cytometry analysis; assay type: functional, cell-based; settings: dose 1-2 µM
HepG2 = experiment: Cytotoxicity against human HepG2 cells assessed as reduction in cell viability incubated for 48 hrs by MTT assay; assay type: functional, cell-based; settings: HepG2, 48 h
4T1 [5] = experiment: Induction of apoptosis in mouse 4T1 cells assessed as early apoptotic cells at 5 uM incubated for 72 hrs by annexinV-FITC and PI staining based flow cytometry analysis (reference value: 1.65 %); assay type: functional
4T1 [6] = experiment: Induction of cell cycle arrest in mouse 4T1 cells assessed as S phase accumulation at 2 uM incubated for 24 hrs by PI staining based flow cytometry analysis (reference value: 19.43 %); assay type: functional
Histone deacetylase 2 = Histone deacetylase 2 (Homo sapiens, UniProt Q92769); experiment: Inhibition of recombinant human C-terminal GST-tagged full length HDAC-2 expressed in baculovirus infected in Sf9 cells using Boc-Lys (q-Ac)-AMC as substrate incubated for 10 mins followed by substrate addition and measured after 30 mins by fluorescence based assay
MDA-MB-231 [7] = experiment: Induction of apoptosis in human MDA-MB-231 cells assessed as late apoptotic cells at 5 uM incubated for 72 hrs by annexinV-FITC and PI staining based flow cytometry analysis (reference value: 3.79 %); assay type: functional
[8] = Toxicity in BALB/c mouse xenografted with mouse 4T1 cells assessed as effect on body weight at 50 mg/kg, po administered for 22 days and measured on day 22; assay type: organism-based; settings: in vivo, 528 h, time 22 day
MDA-MB-231 [9] = experiment: Induction of apoptosis in human MDA-MB-231 cells assessed as necrotic cells at 2.5 uM incubated for 72 hrs by annexinV-FITC and PI staining based flow cytometry analysis (reference value: 0.330 %); assay type: functional
L02 = experiment: Cytotoxicity against human L02 cells assessed as reduction in cell viability incubated for 48 hrs by MTT assay; assay type: ADME, cell-based; settings: L02, 48 h
4T1 [10] = experiment: Induction of apoptosis in mouse 4T1 cells assessed as viable cells at 5 uM incubated for 72 hrs by annexinV-FITC and PI staining based flow cytometry analysis (reference value: 91.1 %); assay type: functional; settings: read-out: Activity
[11] = Genotoxicity in Salmonella typhimurium TA100 by Ames test; assay type: toxicity; settings: salmonella enterica subsp. enterica serovar typhimurium
[12] = Oral bioavailability in Sprague-Dawley rat at 20 mg/kg measured upto 12 hrs by LC-MS/MS analysis; assay type: ADME, organism-based; settings: in vivo
[13] = MRT in Sprague-Dawley rat at 20 mg/kg, iv measured upto 12 hrs by LC-MS/MS analysis; assay type: ADME, organism-based; settings: in vivo
NCI-H460 = experiment: Cytotoxicity against human NCI-H460 cells assessed as reduction in cell viability incubated for 48 hrs by MTT assay; assay type: functional, cell-based; settings: NCI-H460, 48 h
[14] = Cmax in Sprague-Dawley rat at 20 mg/kg, iv measured upto 12 hrs by LC-MS/MS analysis; assay type: ADME, organism-based; design: route intravenous, dose 20 mg/kg, time <=12; settings: in vivo
MCF7 = experiment: Cytotoxicity against human MCF7 cells assessed as reduction in cell viability incubated for 48 hrs by MTT assay; assay type: functional, cell-based; settings: MCF7, 48 h
4T1 [15] = experiment: Induction of cell cycle arrest in mouse 4T1 cells assessed as S phase accumulation at 1 uM incubated for 24 hrs by PI staining based flow cytometry analysis (reference value: 19.43 %); assay type: functional
Histone deacetylase 7 = Histone deacetylase 7 (Homo sapiens, UniProt Q8WUI4); experiment: Inhibition of recombinant human N-terminal GST-tagged HDAC-7 (501 to end residues) expressed in baculovirus infected in Sf9 cells using Boc-Lys (q-Ac)-AMC as substrate incubated for 10 mins followed by substrate addition and measured after 30 mins by fluorescence based assay
PANC-1 = experiment: Cytotoxicity against human PANC-1 cells assessed as reduction in cell viability incubated for 48 hrs by MTT assay; assay type: functional, cell-based; settings: PANC-1, 48 h
HEK-293T = experiment: Cytotoxicity against human HEK293T cells assessed as reduction in cell viability incubated for 48 hrs by MTT assay; assay type: ADME, cell-based
[16] = Genotoxicity in Salmonella typhimurium TA1537 by Ames test; assay type: toxicity; settings: salmonella enterica subsp. enterica serovar typhimurium
MDA-MB-231 [17] = experiment: Induction of cell cycle arrest in human MDA-MB-231 cells assessed as S phase accumulation at 2 uM incubated for 24 hrs by PI staining based flow cytometry analysis (reference value: 43.82 %); assay type: functional
BT-549 = experiment: Potency index, ratio of IC50 of SAHA to IC50 of compound for cytotoxicity against human BT-549 cells assessed as reduction in cell viability incubated for 48 hrs by MTT assay; assay type: functional
[18] = Genotoxicity in Salmonella typhimurium WP2 uvrA (pKM 101) by Ames test; assay type: toxicity; settings: salmonella enterica subsp. enterica serovar typhimurium
4T1 [19] = experiment: Induction of apoptosis in mouse 4T1 cells assessed as viable cells at 2.5 uM incubated for 72 hrs by annexinV-FITC and PI staining based flow cytometry analysis (reference value: 91.1 %); assay type: functional; settings: read-out: Activity
MDA-MB-231 [20] = experiment: Induction of apoptosis in human MDA-MB-231 cells assessed as early apoptotic cells at 1 uM incubated for 72 hrs by annexinV-FITC and PI staining based flow cytometry analysis (reference value: 5.57 %); assay type: functional
Bel-7402 = experiment: Cytotoxicity against human Bel-7402 cells assessed as reduction in cell viability incubated for 48 hrs by MTT assay; assay type: functional, cell-based; settings: Bel-7402, 48 h
[21] = molecular target: Polyamine deacetylase HDAC10 (Homo sapiens, UniProt Q969S8); experiment: Inhibition of recombinant human N-terminal GST-tagged HDAC-10 (1 to 482 residues) expressed in baculovirus infected in Sf9 cells using Boc-Lys (q-Ac)-AMC as substrate incubated for 10 mins followed by substrate addition and measured after 30 mins by fluorescence based assay
MDA-MB-231 [22] = experiment: Induction of apoptosis in human MDA-MB-231 cells assessed as viable cells at 2.5 uM incubated for 72 hrs by annexinV-FITC and PI staining based flow cytometry analysis (reference value: 90.3 %); assay type: functional; settings: read-out: Activity
MDA-MB-231 [23] = experiment: Induction of apoptosis in human MDA-MB-231 cells assessed as early apoptotic cells at 5 uM incubated for 72 hrs by annexinV-FITC and PI staining based flow cytometry analysis (reference value: 5.57 %); assay type: functional
MDA-MB-231 [24] = experiment: Induction of apoptosis in human MDA-MB-231 cells assessed as decrease in Bcl-2 expression incubated for 48 hrs by Western blot analysis; assay type: functional, cell-based; settings: dose 0.5-10 µM
[25] = Tmax in Sprague-Dawley rat at 20 mg/kg, po measured upto 12 hrs by LC-MS/MS analysis; assay type: ADME, organism-based; settings: in vivo

Sequence of Signal transducer and activator of transcription 3 (Homo sapiens) (P40763 whole entry): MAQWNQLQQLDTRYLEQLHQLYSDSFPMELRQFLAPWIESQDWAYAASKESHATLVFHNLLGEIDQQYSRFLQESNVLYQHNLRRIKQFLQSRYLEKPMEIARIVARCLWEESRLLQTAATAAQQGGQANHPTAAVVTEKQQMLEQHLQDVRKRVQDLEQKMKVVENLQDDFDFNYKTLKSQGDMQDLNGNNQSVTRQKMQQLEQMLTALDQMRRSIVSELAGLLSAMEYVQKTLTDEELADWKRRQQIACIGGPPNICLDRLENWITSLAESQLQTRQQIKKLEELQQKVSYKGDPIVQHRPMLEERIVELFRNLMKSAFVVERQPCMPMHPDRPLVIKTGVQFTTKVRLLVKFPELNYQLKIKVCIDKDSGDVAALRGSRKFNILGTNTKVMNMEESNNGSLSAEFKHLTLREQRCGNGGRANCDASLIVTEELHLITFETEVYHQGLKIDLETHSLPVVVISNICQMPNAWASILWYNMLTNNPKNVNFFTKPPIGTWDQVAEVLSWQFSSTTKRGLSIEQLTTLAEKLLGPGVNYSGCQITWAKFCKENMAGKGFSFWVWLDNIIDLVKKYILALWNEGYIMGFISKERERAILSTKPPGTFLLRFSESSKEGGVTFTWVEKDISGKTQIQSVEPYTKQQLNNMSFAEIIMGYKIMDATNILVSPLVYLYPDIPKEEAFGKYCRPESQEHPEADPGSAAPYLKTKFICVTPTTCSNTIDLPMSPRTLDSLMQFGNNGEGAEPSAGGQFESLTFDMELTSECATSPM
Sequence of Polyamine deacetylase HDAC10 (Q969S8 whole entry, the tested form may be a part): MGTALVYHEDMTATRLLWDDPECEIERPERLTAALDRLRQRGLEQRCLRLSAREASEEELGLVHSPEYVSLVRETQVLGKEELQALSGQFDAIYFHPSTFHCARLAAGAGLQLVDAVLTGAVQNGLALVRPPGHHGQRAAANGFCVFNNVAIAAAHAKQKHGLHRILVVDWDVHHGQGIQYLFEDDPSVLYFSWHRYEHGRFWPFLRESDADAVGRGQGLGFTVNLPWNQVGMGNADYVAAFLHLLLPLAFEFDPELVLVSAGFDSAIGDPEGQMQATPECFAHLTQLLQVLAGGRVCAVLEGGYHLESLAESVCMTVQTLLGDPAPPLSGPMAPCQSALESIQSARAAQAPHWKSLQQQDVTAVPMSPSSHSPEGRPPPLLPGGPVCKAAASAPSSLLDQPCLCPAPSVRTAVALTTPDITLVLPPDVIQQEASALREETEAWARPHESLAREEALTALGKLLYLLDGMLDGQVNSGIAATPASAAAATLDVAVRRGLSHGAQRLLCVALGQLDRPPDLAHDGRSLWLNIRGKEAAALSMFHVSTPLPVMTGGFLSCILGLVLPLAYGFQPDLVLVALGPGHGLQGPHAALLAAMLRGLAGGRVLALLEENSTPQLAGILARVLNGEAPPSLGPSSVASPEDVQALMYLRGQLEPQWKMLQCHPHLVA
Sequence of Histone deacetylase 2 (Q92769 whole entry): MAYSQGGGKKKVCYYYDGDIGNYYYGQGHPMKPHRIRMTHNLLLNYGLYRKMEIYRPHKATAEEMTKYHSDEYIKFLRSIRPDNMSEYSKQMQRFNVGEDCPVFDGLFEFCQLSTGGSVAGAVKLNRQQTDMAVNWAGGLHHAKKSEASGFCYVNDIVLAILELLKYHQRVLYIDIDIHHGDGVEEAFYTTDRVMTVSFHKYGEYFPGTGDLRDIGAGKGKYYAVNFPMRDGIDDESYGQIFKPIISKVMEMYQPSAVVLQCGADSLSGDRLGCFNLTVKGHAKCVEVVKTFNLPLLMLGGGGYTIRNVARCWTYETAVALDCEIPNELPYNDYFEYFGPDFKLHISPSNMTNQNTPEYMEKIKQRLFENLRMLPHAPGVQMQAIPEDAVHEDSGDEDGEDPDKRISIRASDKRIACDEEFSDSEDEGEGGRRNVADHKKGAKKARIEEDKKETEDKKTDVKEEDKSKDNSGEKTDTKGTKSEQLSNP
Sequence of Histone deacetylase 7 (Q8WUI4 whole entry): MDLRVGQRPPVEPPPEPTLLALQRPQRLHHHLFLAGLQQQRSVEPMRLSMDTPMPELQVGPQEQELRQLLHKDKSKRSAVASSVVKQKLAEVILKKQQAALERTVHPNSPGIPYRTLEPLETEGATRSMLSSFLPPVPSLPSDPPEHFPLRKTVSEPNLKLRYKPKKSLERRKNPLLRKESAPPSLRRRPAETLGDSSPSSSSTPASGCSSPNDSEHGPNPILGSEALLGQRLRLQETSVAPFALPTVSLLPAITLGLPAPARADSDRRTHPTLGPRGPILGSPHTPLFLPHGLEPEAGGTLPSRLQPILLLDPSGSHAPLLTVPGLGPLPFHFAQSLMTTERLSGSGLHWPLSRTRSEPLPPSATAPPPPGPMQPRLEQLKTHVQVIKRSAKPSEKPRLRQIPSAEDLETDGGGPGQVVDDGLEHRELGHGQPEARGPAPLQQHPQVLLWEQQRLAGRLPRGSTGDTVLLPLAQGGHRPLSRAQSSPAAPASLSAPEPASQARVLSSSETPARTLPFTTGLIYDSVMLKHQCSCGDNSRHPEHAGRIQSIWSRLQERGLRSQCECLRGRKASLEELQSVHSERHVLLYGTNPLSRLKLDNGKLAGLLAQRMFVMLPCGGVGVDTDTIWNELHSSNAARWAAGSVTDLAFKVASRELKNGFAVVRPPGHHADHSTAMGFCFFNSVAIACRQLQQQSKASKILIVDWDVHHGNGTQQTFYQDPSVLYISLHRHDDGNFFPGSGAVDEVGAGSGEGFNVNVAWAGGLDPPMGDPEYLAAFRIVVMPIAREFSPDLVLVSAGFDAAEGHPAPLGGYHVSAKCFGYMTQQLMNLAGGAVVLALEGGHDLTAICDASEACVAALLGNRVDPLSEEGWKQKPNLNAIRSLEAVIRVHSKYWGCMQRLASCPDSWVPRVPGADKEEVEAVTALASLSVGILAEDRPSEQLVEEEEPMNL

**Q.** With CN(C)CCOc1ccc(-c2cc(=O)c3c(O)cc(OCCCCCC(=O)NO)cc3o2)cc1.Cl as the molecule, how does the Activity (MDA-MB-231 [1]) read?
**A.** 12%

**Q.** And the inhibition [2]?
**A.** Dose-dependent effect

**Q.** What about the Activity (MDA-MB-231 [3]) of the same molecule?
**A.** 8.09%

**Q.** What about the Activity (4T1 [4]) of the same molecule?
**A.** Dose-dependent effect

**Q.** And the IC50 (HepG2)?
**A.** 1.16 µM

**Q.** And the Activity (4T1 [5])?
**A.** 54.9%

**Q.** And the Activity (4T1 [6])?
**A.** 25.58%

**Q.** What about the IC50 (Histone deacetylase 2) of the same molecule?
**A.** 0.0585 µM

**Q.** What about the Activity (MDA-MB-231 [7]) of the same molecule?
**A.** 27.2%

**Q.** And the Activity [8]?
**A.** Non-Toxic

**Q.** And the Activity (MDA-MB-231 [9])?
**A.** 0.11%

**Q.** And the IC50 (L02)?
**A.** > 10 µM

**Q.** And the viability at 5 µM (4T1 [10])?
**A.** 22.5%

**Q.** What about the Activity [11] of the same molecule?
**A.** Toxic

**Q.** And the bioavailability [12]?
**A.** 57.8%

**Q.** What about the MRT [13] of the same molecule?
**A.** 74.9 min

**Q.** What about the IC50 (NCI-H460) of the same molecule?
**A.** 2.73 µM

**Q.** What about the Cmax [14] of the same molecule?
**A.** 2180 ng/mL

**Q.** What about the IC50 (MCF7) of the same molecule?
**A.** 4.7 µM

**Q.** What about the Activity (4T1 [15]) of the same molecule?
**A.** 30.99%

**Q.** And the IC50 (Histone deacetylase 7)?
**A.** > 10 µM

**Q.** What about the IC50 (PANC-1) of the same molecule?
**A.** > 10 µM

**Q.** What about the IC50 (HEK-293T) of the same molecule?
**A.** > 10 µM

**Q.** What about the Activity [16] of the same molecule?
**A.** Non-Toxic

**Q.** What about the Activity (MDA-MB-231 [17]) of the same molecule?
**A.** 10.21%

**Q.** What about the “Ratio IC50” value (BT-549) of the same molecule?
**A.** 2

**Q.** What about the Activity [18] of the same molecule?
**A.** Non-Toxic

**Q.** And the viability at 2.5 µM (4T1 [19])?
**A.** 32.9%

**Q.** What about the Activity (MDA-MB-231 [20]) of the same molecule?
**A.** 23.1%

**Q.** And the IC50 (Bel-7402)?
**A.** 3.31 µM

**Q.** What about the IC50 [21] of the same molecule?
**A.** 0.247 µM

**Q.** What about the viability at 2.5 µM (MDA-MB-231 [22]) of the same molecule?
**A.** 25.5%

**Q.** What about the Activity (MDA-MB-231 [23]) of the same molecule?
**A.** 55%

**Q.** What about the Activity (MDA-MB-231 [24]) of the same molecule?
**A.** Dose-dependent effect

**Q.** And the Tmax [25]?
**A.** 20 min
